The numbers were not newly measured in patent US20090117199A1, “Method of treatment of cancer” (priority 1998, published 2009), which cites them from elsewhere.

Read-outs that look alike come from different tables or passages of the source.

Data set [1] has as its system melanoma. Conditions: cited from earlier work.
Data set [2] relates to melanoma. The note with it: single-agent chemotherapy; cited from earlier work.
Setting [3] is: IL cisplatin or IL cisplatin with electroporation, lower end of reported results.
Where [4] appears, read: IL cisplatin or IL cisplatin with electroporation, upper end of reported results.

`N.N.[Cl][Pt][Cl]` [cisplatin]: the CR in data set [1] (setting [3]) is on record as 19%; in data set [1] (setting [4]) it was 47%. The ORR is 38% in data set [1] (setting [3]), 53% in data set [1] (setting [4]), 44% in data set [1] (lesions having a median diameter of 3.0 cm) and 53% in data set [1] (lesions with a median diameter of 0.6 cm). Moreover, the PR is 19% in data set [1] (setting [3]) and 7% in data set [1] (setting [4]).

As to `CN(C)/N=N/c1[nH]cnc1C(N)=O` [dacarbazine], in data set [2], the “cases in which treatment is successful” value is 10-15%.

As to bleomycin, in data set [1] (single electrochemotherapy treatment, IL, response reduced in larger tumors), the efficacy entry is “Substantial efficacy”.

B1: IFNγ: IL interferon (protein, UniProt P01579 24-161, looked up)
Interferon gamma: QDPYVKEAENLKKYFNAGHSDVADNGTLFLGILKNWKEESDRKIMQSQIVSFYFKLFKNFKDDQSIQKSVETIKEDMNVKFFNSNKKKRDDFEKLTNYSVTDLNVQRKAIHELIQVMAELSPAAKTGKRKRSQMLFRG
On to B1, for which the response entry in data set [1] (IL therapy, prior reports) is “no result of transient response”. The “toxicity and side effects” value in data set [1] (in vivo) was “significant toxicity and side effects”.
